Literature values, collected in paper PMC3921447, “Homologous and heterologous desensitization of guanylyl cyclase-B signaling in GH3 somatolactotropes” (Cell and Tissue Research, 2013).

System: growth hormone secretion
Settings: ref Hartt et al. [1995]; Shimekake et al. [1994]; cited from earlier work
Excerpt: Both humans and mice with mutations in the genes encoding either CNP or its receptor, GC-B, suffer from severe growth disorders (Chusho et al. [2001]) and, in some cases, growth hormone deficiency (Tamura et al. [2004]). Despite significant homology between the three natriuretic peptides and between their receptors, mutations in the genes encoding ANP, BNP, or GC-A fail to phenocopy CNP/GC-B-disrupted mice (Kishimoto et al. [2011]). Our recent observations of GC-B expression in normal fetal pituitary tissue and in a range of human pituitary adenomas (including those from acromegalics) strongly ...

In the case of `CC[C@H](C)[C@@H]1NC(=O)[C@H](CCCNC(=N)N)NC(=O)[C@H](CC(=O)O)NC(=O)[C@H](CC(C)C)NC(=O)[C@H](CCCCN)NC(=O)[C@H](CC(C)C)NC(=O)CNC(=O)[C@H](Cc2ccccc2)NC(=O)[C@@H](NC(=O)CNC(=O)[C@H](CCCCN)NC(=O)[C@H](CO)NC(=O)[C@H](CC(C)C)NC(=O)CN)CSSC[C@@H](C(=O)O)NC(=O)CNC(=O)[C@H](CC(C)C)NC(=O)CNC(=O)[C@H](CO)NC(=O)[C@H](CCSC)NC(=O)[C@H](CO)NC(=O)CNC1=O` [CNP, C-type natriuretic peptide], the growth hormone secretion is listed as “act as growth hormone secretogogs”.
